What all share (assay type): in vivo
Common to all, as to settings: 312 h, rate 250 g/ha, evaluated after 13 days, 100=total damage to plant, 0=no damage to plant

Experiment [1] concerns Echinochloa crus-galli (ECHCG). The experiment in a line: Post-emergence herbicidal activity, glasshouse pot test. The protocol:
(§1) Seeds of a variety of test species were sown in standard soil in pots. After cultivation for one day (pre-emergence) or after 8 days cultivation (post-emergence) under controlled conditions in a glasshouse (at 24/16° C., day/night; 14 hours light; 65% humidity), the plants were sprayed with an aqueous spray solution derived from the formulation of the technical active ingredient in acetone/water (50:50) solution containing 0.5% Tween 20 (polyoxyethelyene sorbitan monolaurate, CAS RN 9005-64-5). The test plants were then grown in a glasshouse under controlled conditions in a glasshouse (at 24/16° C., day/night; 14 hours light; 65% humidity) and watered twice daily. After 13 days for pre and post-emergence, the test was evaluated (100=total damage to plant; 0=no damage to plant). Test Plants: Lolium perenne (LOLPE), Alopecurus myosuroides (ALOMY), Echinochloa crus-galli (ECHCG), and Avena fatua (AVEFA). Post-Emergence Activity

Experiment [2] deals with Alopecurus myosuroides (ALOMY). The experiment is described as above. The procedure: as §1
The test system of experiment [3] is Avena fatua (AVEFA). Described as above. The protocol: as §1
For experiment [4], the system named is Lolium perenne (LOLPE). Described as above. The protocol:
as §1

For experiment [5], the system named is Echinochloa crus-galli (ECHCG). As to the kind of experiment: Pre-emergence herbicidal activity, glasshouse pot test. The protocol:
as §1, with “Pre-Emergence” for “Post-Emergence”

Experiment [6] concerns Alopecurus myosuroides (ALOMY). The description is as above. The protocol: as §1, with “Pre-Emergence” for “Post-Emergence”
The subject of experiment [7] is Avena fatua (AVEFA). The experiment is described as above. The procedure: as §1, with “Pre-Emergence” for “Post-Emergence”
In experiment [8] the test system is Lolium perenne (LOLPE). The description is as above. The procedure:
as §1, with “Pre-Emergence” for “Post-Emergence”

Broadly, the pest or weed control is the degree to which the test organism was suppressed or injured, in per cent. Read a high pest or weed control as a strong effect. As for `CCc1ccc(Oc2ccc(Cl)c(F)c2)cc1C1=C(O)[C@H]2[C@@H](C1=O)[C@@H]1CC[C@H]2O1` [Compound A-45], the pest or weed control at 250 g/ha was 100% in experiment [1]; 90% in experiment [2]; 90% in experiment [3]; 90% in experiment [4]; 100% in experiment [5]; 90% in experiment [6]. Moreover, the pest or weed control at 250 g/ha in experiment [7] and in experiment [8] was 90% each time.
As to `CCc1ccc(Oc2ccccc2F)cc1C1=C(O)[C@H]2[C@@H](C1=O)[C@@H]1CC[C@H]2O1` [Compound A-5], the pest or weed control at 250 g/ha in experiment [1] came out at 80%; in experiment [2] it was 30%; in experiment [3], 10%; in experiment [4], 30%; in experiment [5], 80%; in experiment [6], 30%. The pest or weed control at 250 g/ha in experiment [7] stood at 0%; in experiment [8], 40%.
Regarding `CCc1ccc(Oc2ncc(C(F)(F)F)cc2F)cc1C1=C(O)C2C(C1=O)[C@H]1CC[C@@H]2CC1` (some centres unmarked) [Compound A-89], the pest or weed control at 250 g/ha in experiment [1] came out at 100%; in experiment [2], 100%; in experiment [3], 100%; in experiment [4] it was 100%; in experiment [5], 100%; in experiment [6], 50%. The pest or weed control at 250 g/ha in experiment [7] was found to be 70%; in experiment [8], 100%.
As for `CCc1ccc(Oc2ncc(Br)cn2)cc1C1=C(O)CCC1=O` [Compound A-72], the pest or weed control at 250 g/ha in experiment [1] is 100%; in experiment [2], 50%; in experiment [3], 30%; in experiment [4], 30%; in experiment [5], 100%; in experiment [6] it was 40%. In addition, the values for the pest or weed control at 250 g/ha in experiment [7] and in experiment [8] were 30% and 70%, respectively.
As for `CCc1ccc(Oc2ccc(Br)cc2F)cc1C1=C(O)C2C(C1=O)[C@H]1CC[C@@H]2CC1` (some centres unmarked) [Compound A-34], the pest or weed control at 250 g/ha stood at 90% in experiment [1]; 80% in experiment [2]; 90% in experiment [3]; 40% in experiment [4]; 70% in experiment [5]; 20% in experiment [6]. Besides, the pest or weed control at 250 g/ha was found to be 30% in experiment [7] and 50% in experiment [8].
Turning to `CCc1ccc(Oc2ccccc2Cl)cc1C1=C(O)[C@H]2[C@@H](C1=O)[C@@H]1CC[C@H]2O1` [Compound A-8], the pest or weed control at 250 g/ha in experiment [1] is 70%; in experiment [2], 20%; in experiment [3], 20%; in experiment [4], 20%; in experiment [5] it was 40%; in experiment [6], 0%. The figures for the pest or weed control at 250 g/ha in experiment [7] and in experiment [8] were 0% and 40%, respectively.
On to `CCc1ccc(Oc2cnc3cc(Cl)ccc3n2)cc1C1=C(O)[C@H]2[C@@H](C1=O)[C@@H]1CC[C@H]2O1` [Compound A-51], for which the pest or weed control at 250 g/ha in experiment [1] turned out to be 90%; in experiment [2], 100%; in experiment [3], 90%; in experiment [4] it was 100%; in experiment [5] it was 90%; in experiment [6] it was 100%. Further, the figures for the pest or weed control at 250 g/ha in experiment [7] and in experiment [8] were 90% and 100%, respectively.
As to `CCc1ccc(Oc2cnc3cc(Cl)ccc3n2)cc1C1=C(O)CCC1=O` [Compound A-18], the pest or weed control at 250 g/ha in experiment [1] amounted to 100%; in experiment [2], 90%; in experiment [3] it was 90%; in experiment [4], 70%; in experiment [5], 80%; in experiment [6], 50%. Besides, the pest or weed control at 250 g/ha was 50% in experiment [7] and 70% in experiment [8].
With `CCc1ccc(Oc2ccc(Cl)cc2F)cc1C1=C(O)[C@H]2[C@@H](C1=O)[C@@H]1CC[C@H]2O1` [Compound A-6], the pest or weed control at 250 g/ha in experiment [1] turned out to be 100%; in experiment [2], 80%; in experiment [3] it was 90%; in experiment [4], 90%; in experiment [5], 100%; in experiment [6] it was 100%. For the same compound, the pest or weed control at 250 g/ha in experiment [7] was 90%; in experiment [8], 100%.
As to `CCc1ccc(Oc2ccc(Cl)c(Cl)c2)cc1C1=C(O)CCC1=O` [Compound A-17, 2-[5-(3,4-dichlorophenoxy)-2-ethylphenyl]cyclopentane-1,3-dione], the pest or weed control at 250 g/ha in experiment [1] came to 70%; in experiment [2], 10%; in experiment [3], 10%; in experiment [4] it was 30%; in experiment [5] it was 30%; in experiment [6], 10%. Besides, the pest or weed control at 250 g/ha turned out to be 20% in experiment [7] and 10% in experiment [8].
`CCc1ccc(Oc2ccc(Cl)cc2F)cc1C1=C(O)C2C(C1=O)[C@H]1CC[C@@H]2CC1` (some centres unmarked) [Compound A-32]: the pest or weed control at 250 g/ha in experiment [1] was found to be 100%; in experiment [2], 90%; in experiment [3] it was 90%; in experiment [4], 30%; in experiment [5], 60%; in experiment [6], 0%. Further, the pest or weed control at 250 g/ha in experiment [7] worked out at 0%; in experiment [8], 40%.
For the compound `CCc1ccc(Oc2ccc(Cl)cc2Cl)cc1C1=C(O)C2C(C1=O)[C@H]1CC[C@@H]2CC1` (some centres unmarked) [Compound A-29], the pest or weed control at 250 g/ha in experiment [1] was determined as 100%; in experiment [2], 60%; in experiment [3], 0%; in experiment [4], 0%; in experiment [5], 50%; in experiment [6], 0%. For the same compound, the pest or weed control at 250 g/ha in experiment [7] and in experiment [8] was 0% each time.
For the compound `CCc1ccc(Oc2ccc(C(F)(F)F)cc2[N+](=O)[O-])cc1C1=C(O)CCC1=O` [Compound A-76], the pest or weed control at 250 g/ha in experiment [1] came out at 80%; in experiment [2], 50%; in experiment [3], 80%; in experiment [4], 30%; in experiment [5] it was 100%; in experiment [6], 20%. The pest or weed control at 250 g/ha in experiment [7] is 0%; in experiment [8] it was 50%.
For `CCc1ccc(Oc2ccc(Cl)cc2Cl)cc1C1=C(O)[C@H]2[C@H]3CC[C@H](C3)[C@H]2C1=O` [Compound A-21], the pest or weed control at 250 g/ha in experiment [1] is 70%; in experiment [2] it was 40%; in experiment [3], 0%; in experiment [4], 20%; in experiment [5], 40%; in experiment [6], 20%. Besides, the pest or weed control at 250 g/ha was 0% in experiment [7] and 30% in experiment [8].
With `CCc1ccc(Oc2ncc(Cl)cc2F)cc1C1=C(O)[C@H]2[C@H]3CC[C@H](C3)[C@H]2C1=O` [Compound A-11], the pest or weed control at 250 g/ha in experiment [1] is 100%; in experiment [2] it was 80%; in experiment [3], 90%; in experiment [4] it was 70%; in experiment [5], 100%; in experiment [6], 30%. The figures for the pest or weed control at 250 g/ha in experiment [7] and in experiment [8] were 50% and 80%, respectively.
As to `CCc1ccc(Oc2ccc(Br)cc2Cl)cc1C1=C(O)CCC1=O` [Compound A-35], the pest or weed control at 250 g/ha was determined as 30% in experiment [1]; 10% in experiment [2]; 20% in experiment [3]; 20% in experiment [4]; 20% in experiment [5]; 30% in experiment [6]. In addition, the results for the pest or weed control at 250 g/ha in experiment [7] and in experiment [8] were 10% and 60%, respectively.

The values are drawn from patent US8895474B2, “Herbicidally active cyclopentanediones and derivatives thereof, and their use in controlling weeds” (Syngenta Limited, priority 2009, dated 2014).
